Experimental findings from patent US10281476B2, “Methods to identify modulators of RyR calcium channels” (REGENTS OF THE UNIVERSITY OF MINNESOTA, priority 2013, dated 2019) are described below.

Entries after “also recorded” stand apart in the source; their conditions may differ. Where no end group is shown, it is not given here.

The target of experiment [1] is T1, RyR2 (Rattus norvegicus, UniProt B0LPN4). Put plainly: HF647-DPc10 wash-in kinetics by FRET from F-FKBP (donor quench) in permeabilized myocytes. The format is binding. Details: These fluorescent proteins were added to saponin-permeabilized myocytes with or without pre-equilibration with saturating DPc10 concentration; endogenous in cells; host or cells: saponin-permeabilized rat ventricular myocytes. The settings on record: for effect on rate of HF647-DPc10 binding (τwash-in): H2O2 50 μmol/L pre-incubation, dantrolene 1 μmol/L in H2O2-treated myocytes. As to the method: The FRET pair we used in this consisted of ALEXA FLUOR™ 488 (donor) covalently attached to FKBP12.6 (F-FKBP) and HiLyte Fluor™647 (acceptor) covalently attached to DPc10 (F-DPc10).^8 To detect F-DPc10 specifically bound to RyR2, we measured donor fluorescence intensities through a 500-530 nm bandpass filter before and after equilibration with acceptor (donor quenching method). The FRET efficiency (E) was calculated according to: E=1-FDA/FD, Where FD and FDA are the fluorescence intensities of the donor-only and donor-plus-acceptor samples, respectively (Oda et al., Circ Res. 2013;112:487-497). Statistics
Next we tested whether RyR2 oxidation would increase HF647-DPc10 access. Here, we used FRET between F-FKBP as a donor and HF647-DPc10 as an acceptor, to detect DPc10 that specifically binds at RyR2 (Oda et al., Circ Res. 2013; 112:487-497).
Target sequence in this assay (B0LPN4 whole entry): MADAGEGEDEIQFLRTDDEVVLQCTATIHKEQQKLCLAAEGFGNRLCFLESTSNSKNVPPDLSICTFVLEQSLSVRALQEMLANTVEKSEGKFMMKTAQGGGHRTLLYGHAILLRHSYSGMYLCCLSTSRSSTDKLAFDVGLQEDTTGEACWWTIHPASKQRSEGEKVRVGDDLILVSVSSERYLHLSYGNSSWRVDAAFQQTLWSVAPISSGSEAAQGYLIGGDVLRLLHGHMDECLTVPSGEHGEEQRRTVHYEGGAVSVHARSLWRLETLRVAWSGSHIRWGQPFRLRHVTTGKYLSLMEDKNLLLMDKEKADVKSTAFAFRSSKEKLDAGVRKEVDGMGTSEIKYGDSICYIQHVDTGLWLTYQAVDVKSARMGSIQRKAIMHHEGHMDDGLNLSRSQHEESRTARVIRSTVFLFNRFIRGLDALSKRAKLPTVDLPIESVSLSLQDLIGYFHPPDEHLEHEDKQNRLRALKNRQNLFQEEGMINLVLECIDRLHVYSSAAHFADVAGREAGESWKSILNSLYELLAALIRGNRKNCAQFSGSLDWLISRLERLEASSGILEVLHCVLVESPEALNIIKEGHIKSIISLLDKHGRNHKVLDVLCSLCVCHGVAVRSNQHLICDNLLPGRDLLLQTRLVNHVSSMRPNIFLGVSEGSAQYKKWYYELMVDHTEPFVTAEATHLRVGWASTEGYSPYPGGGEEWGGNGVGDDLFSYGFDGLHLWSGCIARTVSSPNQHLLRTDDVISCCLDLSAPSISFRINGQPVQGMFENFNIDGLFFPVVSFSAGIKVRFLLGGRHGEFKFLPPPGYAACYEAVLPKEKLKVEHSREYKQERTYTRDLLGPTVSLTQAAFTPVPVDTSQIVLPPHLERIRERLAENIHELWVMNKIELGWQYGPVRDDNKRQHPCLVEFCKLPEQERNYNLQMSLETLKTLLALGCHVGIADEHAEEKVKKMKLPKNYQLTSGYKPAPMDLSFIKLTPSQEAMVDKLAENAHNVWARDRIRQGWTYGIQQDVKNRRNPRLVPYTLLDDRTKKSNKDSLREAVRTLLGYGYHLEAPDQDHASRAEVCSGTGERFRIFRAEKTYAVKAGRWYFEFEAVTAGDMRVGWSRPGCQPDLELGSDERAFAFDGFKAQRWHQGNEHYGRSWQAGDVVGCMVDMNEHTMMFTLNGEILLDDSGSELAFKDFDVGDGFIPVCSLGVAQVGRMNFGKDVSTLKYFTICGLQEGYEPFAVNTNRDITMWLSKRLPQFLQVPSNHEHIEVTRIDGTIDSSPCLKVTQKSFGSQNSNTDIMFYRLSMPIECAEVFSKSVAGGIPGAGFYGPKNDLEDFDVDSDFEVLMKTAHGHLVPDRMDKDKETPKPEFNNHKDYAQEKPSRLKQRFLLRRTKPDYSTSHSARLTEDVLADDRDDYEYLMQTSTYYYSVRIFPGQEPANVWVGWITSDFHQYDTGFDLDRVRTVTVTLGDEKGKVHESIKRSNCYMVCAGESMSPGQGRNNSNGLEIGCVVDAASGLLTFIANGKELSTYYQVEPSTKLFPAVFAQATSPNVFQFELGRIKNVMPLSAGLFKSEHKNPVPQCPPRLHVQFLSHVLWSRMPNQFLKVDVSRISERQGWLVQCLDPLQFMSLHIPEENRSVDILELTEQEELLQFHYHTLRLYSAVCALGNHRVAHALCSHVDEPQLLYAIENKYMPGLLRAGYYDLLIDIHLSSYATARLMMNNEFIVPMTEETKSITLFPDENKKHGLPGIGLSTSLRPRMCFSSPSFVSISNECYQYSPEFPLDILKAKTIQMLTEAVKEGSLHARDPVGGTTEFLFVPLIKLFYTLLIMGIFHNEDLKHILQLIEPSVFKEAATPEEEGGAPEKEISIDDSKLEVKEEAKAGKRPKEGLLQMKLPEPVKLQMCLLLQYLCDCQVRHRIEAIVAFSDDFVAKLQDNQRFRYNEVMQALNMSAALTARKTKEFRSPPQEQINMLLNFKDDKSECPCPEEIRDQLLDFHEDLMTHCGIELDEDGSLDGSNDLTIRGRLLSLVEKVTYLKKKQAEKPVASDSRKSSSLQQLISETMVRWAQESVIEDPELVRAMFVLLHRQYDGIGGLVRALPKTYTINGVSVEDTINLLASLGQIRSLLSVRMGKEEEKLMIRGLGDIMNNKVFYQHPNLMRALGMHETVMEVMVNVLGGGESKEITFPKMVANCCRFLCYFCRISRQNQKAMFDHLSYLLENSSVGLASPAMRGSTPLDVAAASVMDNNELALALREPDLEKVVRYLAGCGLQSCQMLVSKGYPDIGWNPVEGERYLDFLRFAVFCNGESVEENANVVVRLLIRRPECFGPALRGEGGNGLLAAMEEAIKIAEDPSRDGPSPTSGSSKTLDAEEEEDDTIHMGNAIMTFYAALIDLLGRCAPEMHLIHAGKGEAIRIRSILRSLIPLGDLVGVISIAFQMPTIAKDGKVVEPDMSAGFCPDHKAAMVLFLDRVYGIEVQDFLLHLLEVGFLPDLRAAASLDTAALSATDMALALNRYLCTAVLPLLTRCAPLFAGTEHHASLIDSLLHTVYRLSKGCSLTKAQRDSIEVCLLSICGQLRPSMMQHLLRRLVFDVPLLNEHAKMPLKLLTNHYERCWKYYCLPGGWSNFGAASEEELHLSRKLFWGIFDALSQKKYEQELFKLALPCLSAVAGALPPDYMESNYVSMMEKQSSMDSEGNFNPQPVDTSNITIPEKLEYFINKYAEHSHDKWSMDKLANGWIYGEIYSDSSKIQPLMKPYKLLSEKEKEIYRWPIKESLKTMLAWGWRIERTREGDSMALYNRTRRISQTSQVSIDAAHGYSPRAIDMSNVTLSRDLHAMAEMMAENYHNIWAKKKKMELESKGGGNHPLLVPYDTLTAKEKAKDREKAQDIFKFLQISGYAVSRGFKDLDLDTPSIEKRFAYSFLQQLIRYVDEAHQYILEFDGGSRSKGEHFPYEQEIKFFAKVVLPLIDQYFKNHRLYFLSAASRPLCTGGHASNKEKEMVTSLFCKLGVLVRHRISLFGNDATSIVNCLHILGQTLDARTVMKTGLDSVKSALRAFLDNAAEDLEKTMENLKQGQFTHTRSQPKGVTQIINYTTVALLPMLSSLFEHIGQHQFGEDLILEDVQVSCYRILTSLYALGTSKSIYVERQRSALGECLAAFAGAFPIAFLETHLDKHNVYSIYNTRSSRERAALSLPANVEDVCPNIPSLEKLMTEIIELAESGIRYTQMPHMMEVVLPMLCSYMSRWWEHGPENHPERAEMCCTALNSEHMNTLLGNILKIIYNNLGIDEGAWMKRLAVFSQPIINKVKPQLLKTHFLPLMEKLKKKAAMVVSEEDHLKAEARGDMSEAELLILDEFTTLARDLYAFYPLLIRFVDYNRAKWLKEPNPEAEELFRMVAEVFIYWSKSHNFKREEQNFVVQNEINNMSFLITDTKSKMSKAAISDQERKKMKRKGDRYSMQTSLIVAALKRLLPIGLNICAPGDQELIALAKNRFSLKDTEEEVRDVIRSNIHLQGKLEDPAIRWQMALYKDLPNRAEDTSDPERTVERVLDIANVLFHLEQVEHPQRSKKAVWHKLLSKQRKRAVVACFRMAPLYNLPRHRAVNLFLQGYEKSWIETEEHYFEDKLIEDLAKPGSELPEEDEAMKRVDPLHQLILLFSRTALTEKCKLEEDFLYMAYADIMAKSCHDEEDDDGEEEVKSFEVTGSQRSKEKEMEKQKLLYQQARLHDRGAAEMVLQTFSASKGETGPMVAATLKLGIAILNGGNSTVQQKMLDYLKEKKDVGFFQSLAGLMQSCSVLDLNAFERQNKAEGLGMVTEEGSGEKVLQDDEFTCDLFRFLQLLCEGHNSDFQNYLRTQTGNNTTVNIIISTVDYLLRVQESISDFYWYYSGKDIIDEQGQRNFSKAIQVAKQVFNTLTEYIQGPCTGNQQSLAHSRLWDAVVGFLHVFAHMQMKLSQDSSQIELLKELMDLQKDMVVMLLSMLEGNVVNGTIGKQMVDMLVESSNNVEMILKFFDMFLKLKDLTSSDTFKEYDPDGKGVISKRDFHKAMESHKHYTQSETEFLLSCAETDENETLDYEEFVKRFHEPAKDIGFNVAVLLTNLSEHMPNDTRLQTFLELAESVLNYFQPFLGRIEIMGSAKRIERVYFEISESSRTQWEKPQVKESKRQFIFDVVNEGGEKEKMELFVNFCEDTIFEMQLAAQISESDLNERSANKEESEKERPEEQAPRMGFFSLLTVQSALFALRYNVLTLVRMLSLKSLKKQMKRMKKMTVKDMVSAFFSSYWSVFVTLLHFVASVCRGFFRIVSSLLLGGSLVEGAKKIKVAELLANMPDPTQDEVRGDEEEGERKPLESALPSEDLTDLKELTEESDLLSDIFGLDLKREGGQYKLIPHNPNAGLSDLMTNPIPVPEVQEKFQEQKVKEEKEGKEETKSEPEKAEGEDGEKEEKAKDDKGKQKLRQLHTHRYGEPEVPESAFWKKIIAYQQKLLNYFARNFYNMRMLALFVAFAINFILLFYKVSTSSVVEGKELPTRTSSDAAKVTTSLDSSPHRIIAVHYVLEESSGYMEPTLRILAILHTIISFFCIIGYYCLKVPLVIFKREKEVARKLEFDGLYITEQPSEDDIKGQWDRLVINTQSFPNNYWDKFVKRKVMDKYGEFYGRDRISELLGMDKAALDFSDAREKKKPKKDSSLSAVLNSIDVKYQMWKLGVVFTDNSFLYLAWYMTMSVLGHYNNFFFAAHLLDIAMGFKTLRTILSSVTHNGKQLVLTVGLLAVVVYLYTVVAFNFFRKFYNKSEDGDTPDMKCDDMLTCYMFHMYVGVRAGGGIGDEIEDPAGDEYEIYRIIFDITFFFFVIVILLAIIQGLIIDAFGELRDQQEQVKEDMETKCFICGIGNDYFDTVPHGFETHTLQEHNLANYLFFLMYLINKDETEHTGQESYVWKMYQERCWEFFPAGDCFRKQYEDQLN
Target sequence in this assay (P68106 with tags, fused parts or gaps T15C/C23A/C77I partner): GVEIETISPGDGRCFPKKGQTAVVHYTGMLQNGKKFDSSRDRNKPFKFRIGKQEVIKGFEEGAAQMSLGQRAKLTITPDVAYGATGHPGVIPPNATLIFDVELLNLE

Experiment [2] deals with permeabilized cardiomyocytes. Briefly: Ca2+ sparks and SR Ca2+ content in permeabilized myocytes. It counts as cell-based, rat. As to the method: Myocytes were permeabilized with saponin (50μg/mL) for 60 seconds and placed in internal solution composed of EGTA 0.5 mmol/L; HEPES 10 mmol/L; Kaspartate 120 mmol/L; ATP 5 mmol/L; free MgCl2 1 mmol/L, reduced glutathione 10 mmol/L; and free [Ca2+] 50nmol/L (calculated using MaxChelator), creatine phosphokinase 5 U/mL, phosphocreatine 10 mmol/L, dextran 4% Fluo-4 0.025 mmol/L, pH 7.2. Ca2+sparks were recorded by a laser scanning confocal microscope (RADIANCE2000™ MP, Bio-Rad, UK) as previously described (Li et al., Circ Res, 2002; 90:309-316). Fluo-4 was excited at 488 nm and emission was recorded using 500/530 nm bandpass filter. To assess SR Ca2+content, caffeine (15 mmol/L) was rapidly perfused. Ca2+spark were analyzed as using SparkMaster (Picht et al., Am J Physiol Cell Physiol, 2007; 293:C1073-C1081).
Next, we asked whether RyR2 is activated by DPc10 and whether FKBP12.6 or CaM can prevent this. We assessed Ca^2+ sparks in permeabilized myocytes perfused with internal solution containing 50 nmol/L free Ca^2+ plus 1 μmol/L autocamtide-2-related inhibitory peptide (to inhibit CaMKII activity). Line-scan images were recorded after 3-hour incubations under control conditions and in the presence of 5 μmol/L DPc10, with or without 1 μmol/L CaM or 100 nmol/L FKBP12.6 (FIG. 14D).

The target of experiment [3] is T1, RyR2. Briefly: Steady-state F-DPc10 binding at the Z-line of saponin-permeabilized myocytes (confocal). Details: endogenous in cells; host or cells: saponin-permeabilized adult rat ventricular myocytes. As to the method:
Rat ventricular myocytes were isolated and permeabilized as previously described (Li et al., Circ Res, 2002; 90:309-316). All procedures were performed according to the Guiding Principles in the Care and Use of the Animals and were approved by the Council of American Physiological Society. DPc10, FKBP12.6, and CaM were labeled at specific sites with small fluorescence probes, similar to our previous studies (Guo et al., Circ Res, 2010; 106:1743-1752; Cornea et al., PNAS USA, 2009; 106:6128-6133; Guo et al., Biophys J, 2011; 101:2170-2177).
Confocal images was measured using a Biorad RADIANCE2100™ laser scanning confocal microscope equipped with an Argon ion laser, Green HeNe laser and with a Nikon Fluo x40 oil lens. FRET (fluorescence resonance energy transfer) experiments between CaM and DPc10, and FKBP12.6 and DPc10 were performed using an Olympus FV1000 confocal microscope. All experiments were done at room temperature.
Myocytes were exposed to […] F-DPc10, with intracellular [Ca^2+] ([Ca^2+]i) set at 50 nmol/L. F-DPc10 fluorescence is highest at the Z-lines, where RyR2 is concentrated, forming a typical cross-striated pattern. The difference between fluorescence intensity at the Z-line (Fz) and M-line (FM) is taken to represent [F-DPc10] specifically bound at the myocyte Z-line. We calibrated the bound [F-DPc10] in permeabilized myocytes using the linear relationship between F-DPc10 fluorescence and bath [F-DPc10] (FIG. 7B). […] To further test whether this Z-line-associated F-DPc10 represents RyR2-bound F-DPc10, we measured FRET between FKBP12.6 (known to specifically bind to RyR2 with subnanomolar affinity) (Guo et al., Circ Res, 2010; 106:1743-1752) and F-DPc10. […] Donor (AF568-FKBP12.6) fluorescence at the Z-line was quenched by HF647-DPc10, but the M-line signal was not (FIG. 9B). […]
Target sequence in this assay (B0LPN4 whole entry): as the sequence (B0LPN4 whole entry) above

Where [4] appears, read: DPc10 5 μmol/L, FKBP12.6 100 nmol/L, CaM 1 μmol/L.

`OO` [H2O2, hydrogen peroxide]: on RyR2 [1], the “effect on rate of HF647-DPc10 binding (τwash-in)” value was “significantly accelerated”. On RyR2 [1] (after H2O2 treatment), the “faster τwash-in of F-DPc10” value is 50%.
Turning to `O=C1CN(/N=C/c2ccc(-c3ccc([N+](=O)[O-])cc3)o2)C(O)=N1` [dantrolene], at RyR2 [1], the “effect on rate of HF647-DPc10 binding (τwash-in)” value was “restored; also recorded: reversed”. For the same molecule, on RyR2 [1] (dantrolene in H2O2-treated myocytes), the “effect on maximal extent of quench” value is “reduced”.
Turning to “GFCPDHKAAMVLFLDRVYGIEVQDFLLHLLEVGFLP [DPc10]”, in experiment [2] (5 μmol/L DPc10, 3-hour incubation, 50 nmol/L free Ca2+, 1 μmol/L AIP), the “Ca2+ spark frequency (CaSpF) vs control” value is “robustly increased”. In experiment [2] (setting [4]), the “Ca2+ spark FDHM” value was 58.5 ± 1.00 ms, the “Ca2+ spark FWHM” value was found to be 1.34 ± 0.01 μm and the “Ca2+ spark Peak (F/F0)” value worked out at 0.475 ± 0.004 F/F0. Also, the “SR Ca2+ content vs control (caffeine-induced Ca2+ release)” value in experiment [2] (permeabilized myocytes) was “significantly lower”. The Kd on RyR2 [3] was ~500 nM. Further, on RyR2 [3] (summary in Discussion), the Bmax value stood at 1.6 µmol/L.

By Kd is commonly meant the concentration at which binding is half-saturated.
